Experimental data as given in patent publication US20260191982A1, “ANTI-BASAL CELL ADHESION MOLECULE ANTIBODY-DRUG CONJUGATE” (Genome & Company, Inc., priority 2022, published 2026).
Non-standard residues stand in square brackets, D forms with d. Residues, ends and D or L forms follow the SMILES beside them. Groups on a side chain read outwards from the residue. *: point of attachment. DM1Mal(CH2)2CO = COc1cc2cc(c1Cl)N(C)C(=O)C[C@H](OC(=O)[C@H](C)N(C)C(=O)CCSC1CC(=O)N(CCC(=O)*)C1=O)[C@]1(C)O[C@H]1[C@H](C)[C@@H]1C[C@@](O)(NC(=O)O1)[C@H](OC)/C=C/C=C(\C)C2; X2 = CC(=O)N[C@@H](CSC1CC(=O)N(CCC(=O)*)C1=O)C(=O)O; Dolaproine = CO[C@@H]([C@@H]1CCCN1)[C@@H](C)C(=O)O; Dil = CC[C@H](C)[C@H](NC)[C@@H](CC(=O)O)OC; NMe2Val = CC(C)[C@@H](C(=O)*)N(C)C; PEG5 = NCCOCCOCCOCCOCCOCCC(=O)O; Cit = NC(=O)NCCC[C@H](N)C(=O)O; PEG4 = NCCOCCOCCOCCOCCC(=O)O

Target: T1, Cathepsin B (Homo sapiens, UniProt P07858)
T1 construct: purchased R&D Systems, Bio-Techne AG 953-CY-010
Assay: Cat B-induced cleavage, in vitro enzymatic cleavage assay with UHPLC-MS/MS
Assay type: biochemical
Conditions: for Ratio (T1/2 Compound/T1/2 Reference): versus Cys-MC-Val-Cit-PABC-MMAF; for half-life at 10 μM: human, recombinant human Cathepsin B (activated), 10 μM test compound, Cathepsin B 2 μg/mL, MES buffer pH 5.0, 37° C., read-out: T1/2 Compound
Protocol: Cat B-induced cleavage of the antibody-drug conjugates can be evaluated according to the in vitro enzymatic cleavage assay using recombinant human Cathepsin B (commercially acquired from R&D Systems, Bio-Techne AG, cat #. 953-CY-010 in the form of a precursor) and UHPLC-MS/MS analysis.
Briefly, the enzyme is reconstituted in 25 mM 2-(N-morpholino) ethanesulfonic acid (MES) buffer adjusted at pH 5.0 with a 1M NaOH solution and then activated with a […] solution of Dithiothreitol (DDT) at room temperature for at least 15 min. The in vitro enzymatic assay is conducted at 37° C. with the test compound at a concentration of 10 μM (when the test compound is a linker according to the present invention wherein the maleimide group has been quenched in the presence of acetyl-cysteine (Ac-Cys-OH)) or 2.5 μM (when the test compound is an antibody-drug conjugate) in the presence of activated recombinant human Cathepsin B enzyme at 2 μg/mL in a 25 mM MES buffer pH 5.0. The enzymatic cleavage reaction is stopped for each defined time point by mixing a 1/10 ratio volume of acetonitrile+0.1% formic acid (FA) containing an internal standard (warfarine at 0.5 μM). Analysis is conducted using a Waters Acquity UPLC System coupled to a Waters Xevo TQ triple quad mass spectrometer. UHPLC is conducted with a HSS T3 1.8 μm 50×2.1 mm column (Waters) heated at 45° C. and fitted with 2 μm insert filter pre-column (Waters), and solvent systems A1 (H2O+0.1% FA) and B1 (acetonitrile+0.1% FA) at a flow rate of 0.6 mL/min and a 5-95% gradient of B1 over 2.0 min. MS/MS is performed using electrospray ionization (ESI) interface in positive mode and specific MRM transitions for each compound.
The propensity of compounds 1-13 to be cleaved by Cathepsin B was evaluated according to an in vitro enzymatic cleavage assay using recombinant human Cathepsin B and UHPLC-MS/MS analysis as described in Section 2.3.5 above.

Row | Structure (SMILES) | Ratio (T1/2 Compound/T1/2 Reference) | Cat B-induced drug release, times faster than reference (compared to Cys-MC-Val-Cit-PABC-MMAF) | half-life at 10 μM
1 | CC[C@H](C)[C@@H]([C@@H](CC(=O)N1CCC[C@H]1[C@H](OC)[C@@H](C)C(=O)N[C@@H](Cc1ccccc1)C(=O)N[C@@H](CCCNC(=N)N)C(=O)N[C@@H](CCCCNC(=O)CCOCCOCCOCCOCCOCCNC(=O)CCN1C(=O)CC(SC[C@H](NC(C)=O)C(=O)O)C1=O)C(=O)N[C@@H](Cc1ccccc1)C(=O)O)OC)N(C)C(=O)[C@@H](NC(=O)[C@H](C(C)C)N(C)C)C(C)C (stereo partly drawn) [compound 1, AF-Arg-Lys(PEG4-Mal-Cys-Ac)-Phe-OH] (NMe2Val-V[Dil][Dolaproine]FRK([PEG5-X2])F-OH) | 0.12 |  | 
2 | CC[C@H](C)[C@@H]([C@@H](CC(=O)N1CCC[C@H]1[C@H](OC)[C@@H](C)C(=O)N[C@@H](Cc1ccccc1)C(=O)N[C@@H](CCCNC(=N)N)C(=O)N[C@@H](Cc1ccccc1)C(=O)N[C@@H](CCCCNC(=O)CCOCCOCCOCCOCCNC(=O)CCN1C(=O)CC(SC[C@H](NC(C)=O)C(=O)O)C1=O)C(=O)O)OC)N(C)C(=O)[C@@H](NC(=O)[C@H](C(C)C)N(C)C)C(C)C (stereo partly drawn) [compound 3, AF-Arg-Phe-Lys(PEG4-Mal-Cys-Ac)-OH] (NMe2Val-V[Dil][Dolaproine]FRFK([PEG4-X2])-OH) | 0.11 |  | 
3 | COc1cc2cc(c1Cl)N(C)C(=O)C[C@H](OC(=O)[C@H](C)N(C)C(=O)CCSC1CC(=O)N(CCC(=O)N[C@@H](Cc3ccccc3)C(=O)N[C@@H](CCCCN)C(=O)N[C@@H](CCCCNC(=O)CCOCCOCCOCCOCCNC(=O)CCN3C(=O)CC(SC[C@H](NC(C)=O)C(=O)O)C3=O)C(=O)N[C@@H](Cc3ccccc3)C(=O)O)C1=O)[C@]1(C)O[C@H]1[C@H](C)[C@@H]1C[C@@](O)(NC(=O)O1)[C@H](OC)/C=C/C=C(\C)C2 (stereo partly drawn) [compound 5, DM1-Mal-Phe-Lys-Lys(PEG4-Mal-Cys-Ac)-Phe-OH] ({DM1Mal(CH2)2CO}-FKK([PEG4-X2])F-OH) | 0.05 | 20 times | 
4 | COc1cc2cc(c1Cl)N(C)C(=O)C[C@H](OC(=O)[C@H](C)N(C)C(=O)CCSC1CC(=O)N(CCC(=O)N[C@@H](Cc3ccccc3)C(=O)N[C@@H](CCCNC(N)=O)C(=O)N[C@@H](CCCCNC(=O)CCOCCOCCOCCOCCNC(=O)CCN3C(=O)CC(SC[C@H](NC(C)=O)C(=O)O)C3=O)C(=O)N[C@@H](Cc3ccccc3)C(=O)O)C1=O)[C@]1(C)O[C@H]1[C@H](C)[C@@H]1C[C@@](O)(NC(=O)O1)[C@H](OC)/C=C/C=C(\C)C2 (stereo partly drawn) [compound 6, DM1-Mal-Phe-Cit-Lys(PEG4-Mal-Cys-Ac)-Phe-OH] ({DM1Mal(CH2)2CO}-F[Cit]K([PEG4-X2])F-OH) | 0.02 |  | 
5 | COc1cc2cc(c1Cl)N(C)C(=O)C[C@H](OC(=O)[C@H](C)N(C)C(=O)CCSC1CC(=O)N(CCC(=O)N[C@@H](Cc3ccccc3)C(=O)N[C@@H](CCCNC(N)=O)C(=O)N[C@@H](Cc3ccccc3)C(=O)N[C@@H](CCCCNC(=O)CCOCCOCCOCCOCCNC(=O)CCN3C(=O)CC(SC[C@H](NC(C)=O)C(=O)O)C3=O)C(=O)O)C1=O)[C@]1(C)O[C@H]1[C@H](C)[C@@H]1C[C@@](O)(NC(=O)O1)[C@H](OC)/C=C/C=C(\C)C2 (stereo partly drawn) [compound 7, DM1-Mal-Phe-Cit-Phe-Lys(PEG4-Mal-Cys-Ac)-OH] ({DM1Mal(CH2)2CO}-F[Cit]FK([PEG4-X2])-OH) | 0.09 |  | 
6 | CC[C@H](C)[C@@H]([C@@H](CC(=O)N1CCC[C@H]1[C@H](OC)[C@@H](C)C(=O)N[C@@H](Cc1ccccc1)C(=O)N[C@@H](CCCNC(N)=O)C(=O)N[C@@H](CCCCNC(=O)CCOCCOCCOCCOCCNC(=O)CCN1C(=O)CC(SC[C@H](NC(C)=O)C(=O)O)C1=O)C(=O)N[C@@H](Cc1ccccc1)C(=O)O)OC)N(C)C(=O)[C@@H](NC(=O)[C@H](C(C)C)N(C)C)C(C)C (stereo partly drawn) [compound 8, AF-Cit-Lys(PEG4-Mal-Cys-Ac)-Phe-OH] (NMe2Val-V[Dil][Dolaproine]F[Cit]K([PEG4-X2])F-OH) | 0.09 |  | 
7 | COc1cc2cc(c1Cl)N(C)C(=O)C[C@H](OC(=O)[C@H](C)N(C)C(=O)CCSC1CC(=O)N(CC3CCC(C(=O)N[C@@H](Cc4ccccc4)C(=O)N[C@@H](CCCNC(N)=O)C(=O)N[C@@H](CCCCNC(=O)CCOCCOCCOCCOCCOCCNC(=O)CN4C(=O)CC(SC[C@H](NC(C)=O)C(=O)O)C4=O)C(=O)N[C@@H](Cc4ccc(O)cc4)C(=O)O)CC3)C1=O)[C@]1(C)O[C@H]1[C@H](C)[C@@H]1C[C@@](O)(NC(=O)O1)[C@H](OC)/C=C/C=C(\C)C2 (stereo partly drawn) [compound 11, DM1-Mcc-Phe-Cit-Lys(PEG5-Mal-Cys-Ac)-Tyr-OH] | 0.005 |  | < 1 min
8 | COc1cc2cc(c1Cl)N(C)C(=O)C[C@H](OC(=O)[C@H](C)N(C)C(=O)CCSC1CC(=O)N(CC3CCC(C(=O)N[C@@H](CCCNC(N)=O)C(=O)N[C@@H](CCCCNC(=O)CCOCCOCCOCCOCCOCCNC(=O)CN4C(=O)CC(SC[C@H](NC(C)=O)C(=O)O)C4=O)C(=O)N[C@@H](Cc4ccc(O)cc4)C(=O)O)CC3)C1=O)[C@]1(C)O[C@H]1[C@H](C)[C@@H]1C[C@@](O)(NC(=O)O1)[C@H](OC)/C=C/C=C(\C)C2 (stereo partly drawn) [compound 12, DM1-Mcc-Cit-Lys(PEG5-Mal-Cys-Ac)-Tyr-OH] | 0.00004 |  | < 1 min
